Reference: PubChem BioAssay (NCI)
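Where inhibition never reached the appropriate level, the endpoint shown equals the highest concentration tested. Otherwise, values were interpolated linearly from a five-concentration, 48-hour dose response in 96-well plates. GI50 marks 50% less growth. TGI marks complete inhibition of growth.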

Legend:
Experiment in all cases: DTP human tumour cell line panel, 48 h; in the data active = GI50 below about 0.43 µM; inactive = the rest
[1] = system: UO-31 renal
[2] = system: NCI/ADR-RES ovarian
[3] = system: UACC-257 melanoma
[4] = system: MOLT-4 leukemia
[5] = system: DU-145 prostate
[6] = system: IGROV1 ovarian
[7] = system: SW-620 colon
[8] = system: EKVX NSCLC
[9] = system: 786-0 renal
[10] = system: U251 CNS
[11] = system: SF-539 CNS
[12] = system: BT-549 breast
[13] = system: T-47D breast
[14] = system: M14 melanoma
[15] = system: SR leukemia
[16] = system: SK-MEL-2 melanoma
[17] = system: MDA-MB-231 breast
[18] = system: KM12 colon
[19] = system: NCI-H460 lung
[20] = system: OVCAR-4 ovarian
[21] = system: A549 NSCLC
[22] = system: HCT-116 colon
[23] = system: HOP-92 NSCLC
[24] = system: HCC-2998 colon
[25] = system: SK-MEL-28 melanoma
[26] = system: UACC-62 melanoma
[27] = system: MCF7 breast
[28] = system: A498 renal
[29] = system: COLO 205 colon
[30] = system: OVCAR-3 ovarian
[31] = system: SK-OV-3 ovarian
[32] = system: ACHN renal
[33] = system: OVCAR-5 ovarian
[34] = system: RPMI-8226 leukemia
[35] = system: NCI-H522 lung
[36] = system: SF-295 CNS
[37] = system: SN12C renal
[38] = system: HCT-15 colon
[39] = system: TK-10 renal
[40] = system: CCRF-CEM leukemia
[41] = system: CAKI-1 renal
[42] = system: K-562 leukemia
[43] = system: HT29 colon
[44] = system: OVCAR-8 ovarian
[45] = system: NCI-H226 lung
[46] = system: MALME-3M melanoma
[47] = system: MDA-MB-435
[48] = system: RXF 393 renal
[49] = system: HOP-62 NSCLC
[50] = system: SNB-19 CNS
[51] = system: SK-MEL-5 melanoma
[52] = system: SF-268 CNS
[53] = system: PC-3 prostate
[54] = system: HS 578T breast
[55] = system: LOX IMVI melanoma

Cc1c(-c2ccc(O)c(O)c2)oc(=O)c2c(O)cc(O)cc12
53.3 µM: TGI [3]
68.3 µM: TGI [14]
57.8 µM: TGI [30]
61.5 µM: TGI [49]
88.6 µM: TGI [24]
45.1 µM: TGI [26]
59.1 µM: TGI [37]
10.3 µM: TGI [46]
91.9 µM: TGI [54]
28.9 µM: TGI [36]
> 100 µM: TGI [1] | TGI [2] | TGI [4] | TGI [5] | TGI [7] | TGI [9] | TGI [10] | TGI [13] | TGI [15] | TGI [16] | TGI [17] | TGI [19] | TGI [20] | TGI [21] | TGI [22] | TGI [23] | TGI [25] | TGI [27] | TGI [29] | TGI [31] | TGI [32] | TGI [33] | TGI [35] | TGI [38] | TGI [40] | TGI [42] | TGI [43] | TGI [45] | TGI [48] | TGI [50] | TGI [52] | TGI [53] | TGI [55]
56.8 µM: TGI [28]
36 µM: TGI [39]
43.2 µM: TGI [12]
30.8 µM: TGI [51]
63.9 µM: TGI [8]
54.7 µM: TGI [18]
inactive: GI50 [1] 6.9 µM | GI50 [2] 14.1 µM | GI50 [3] 14.4 µM | GI50 [4] 42.8 µM | GI50 [5] 28.8 µM | GI50 [6] 2.3 µM | GI50 [7] 4.92 µM | GI50 [8] 15.7 µM | GI50 [9] 14.4 µM | GI50 [10] 9.67 µM | GI50 [11] 13.2 µM | GI50 [12] 6.78 µM | GI50 [13] 88.7 µM | GI50 [14] 8.07 µM | GI50 [15] 4.52 µM | GI50 [16] 26 µM | GI50 [17] 86.8 µM | GI50 [18] 12.2 µM | GI50 [19] 12.1 µM | GI50 [20] 46.5 µM | GI50 [21] 19.4 µM | GI50 [22] 14 µM | GI50 [23] 17.2 µM | GI50 [24] 31.5 µM | GI50 [25] 19.8 µM | GI50 [26] 8.45 µM | GI50 [27] 39.1 µM | GI50 [28] 20.7 µM | GI50 [29] 67.4 µM | GI50 [30] 11.1 µM | GI50 [31] 62.7 µM | GI50 [32] 21.3 µM | GI50 [33] 42.9 µM | GI50 [34] 7.69 µM | GI50 [35] 5.08 µM | GI50 [36] 7.52 µM | GI50 [37] 14.5 µM | GI50 [38] 9.66 µM | GI50 [39] 7.97 µM | GI50 [40] 2.83 µM | GI50 [41] 11.3 µM | GI50 [42] 19.5 µM | GI50 [43] 54.1 µM | GI50 [44] 17.9 µM | GI50 [45] 21.3 µM | GI50 [46] 1.16 µM | GI50 [47] 2.17 µM | GI50 [48] 49.8 µM | GI50 [49] 18.2 µM | GI50 [50] 45.6 µM | GI50 [51] 6.59 µM | GI50 [52] 11.1 µM | GI50 [53] 29.5 µM | GI50 [54] 9.69 µM | GI50 [55] 13.1 µM
46.5 µM: TGI [41]
6.34 µM: TGI [6]
6.14 µM: TGI [47]
90 µM: TGI [44]
63.7 µM: TGI [11]
45.3 µM: TGI [34]
